ChEMBL document CHEMBL1123271, “Selective monoamine oxidase inhibitors. 4. 4-Aminophenethylamine derivatives with neuron-selective action” (J Med Chem, 1986)
pIC50: −log10 of the molar value.

Species on record: Rattus norvegicus
Test: Compound was tested for its ability to inhibit dopamine uptake
Assay type: functional, organism-based

Compound | pIC50
CC(N)Cc1c(Cl)cc(N)cc1Cl (centres undefined) | 4.52
CC(C)(N)Cc1ccc(N)cc1F | 5.80
Cc1cc(N)c(Br)cc1CC(C)N (centres undefined) | 5.70
CC(N)Cc1ccc(N)cc1 (centres undefined) | 6.80
Cc1cc(N)ccc1CC(C)(C)N | 4.40
CCc1cc(N)ccc1CC(C)N (centres undefined) | 4.70
CC(N)Cc1ccc(N)cc1F (centres undefined) | 6.38
CC(C)(N)Cc1ccc(N)cc1Cl | 4.82
CC(N)Cc1ccc(N)cc1Cl (centres undefined) | 7.15
Cc1cc(N)ccc1CC(C)N (centres undefined) | 4.96

Species on record: Rattus norvegicus
Test: Compound was tested for its ability to inhibit norepinephrine uptake
Assay type: functional, organism-based

Compound | pIC50
CC(N)Cc1c(Cl)cc(N)cc1Cl (centres undefined) | 5.66
CC(C)(N)Cc1ccc(N)cc1F | 6.49
Cc1cc(N)c(Br)cc1CC(C)N (centres undefined) | 6.26
CC(N)Cc1ccc(N)cc1 (centres undefined) | 7.15
Cc1cc(N)ccc1CC(C)(C)N | 6.44
CCc1cc(N)ccc1CC(C)N (centres undefined) | 5.70
CC(N)Cc1ccc(N)cc1F (centres undefined) | 7.30
CC(N)Cc1ccc(N)cc1Cl (centres undefined) | 6.72
Cc1cc(N)ccc1CC(C)N (centres undefined) | 6.49

Species on record: Rattus norvegicus
Test: Compound was tested for its ability to inhibit norepinephrine uptake.
Assay type: functional, organism-based

Compound | pIC50
CC(C)(N)Cc1ccc(N)cc1Cl | 6.22

Species on record: Rattus norvegicus
Test: Compound was tested for its ability to inhibit serotonin uptake
Assay type: functional, organism-based

Compound | pIC50
CC(N)Cc1c(Cl)cc(N)cc1Cl (centres undefined) | 4.52
CC(C)(N)Cc1ccc(N)cc1F | 4.57
Cc1cc(N)c(Br)cc1CC(C)N (centres undefined) | 5.19
CC(N)Cc1ccc(N)cc1 (centres undefined) | 4.70
Cc1cc(N)ccc1CC(C)(C)N | 5.59
CCc1cc(N)ccc1CC(C)N (centres undefined) | 5.00
CC(N)Cc1ccc(N)cc1F (centres undefined) | 5.89
CC(C)(N)Cc1ccc(N)cc1Cl | 5.26
CC(N)Cc1ccc(N)cc1Cl (centres undefined) | 5.52
Cc1cc(N)ccc1CC(C)N (centres undefined) | 5.05

Species on record: Rattus norvegicus
Test: Determined from log concentration-inhibition curves using rat brain mitochondrial preparation as enzyme and [14C]5-HT (5-HT) as a substrate
Assay type: functional

Compound | pIC50
CC(N)Cc1c(Cl)cc(N)cc1Cl (centres undefined) | 7.92
CC(C)(N)Cc1ccc(N)cc1F | 5.22
Cc1cc(N)c(Br)cc1CC(C)N (centres undefined) | 5.82
CC(N)Cc1ccc(N)cc1 (centres undefined) | 5.17
Cc1cc(N)ccc1CC(C)(C)N | 4.70
CCc1cc(N)ccc1CC(C)N (centres undefined) | 4.22
CC(N)Cc1ccc(N)cc1F (centres undefined) | 6.12
CC(C)(N)Cc1ccc(N)cc1Cl | 5.89
CC(N)Cc1ccc(N)cc1Cl (centres undefined) | 6.57
Cc1cc(N)ccc1CC(C)N (centres undefined) | 5.80

System: Rattus norvegicus
Test: Compound was tested for the behavioral changes in reserpinized rats that indicates the release of dopamine by subcuteneous administration
Assay type: functional

Compound | Least dose [mg/kg]
CC(N)Cc1c(Cl)cc(N)cc1Cl (centres undefined) | 229
CC(C)(N)Cc1ccc(N)cc1F | 264
Cc1cc(N)c(Br)cc1CC(C)N (centres undefined) | >211
CC(N)Cc1ccc(N)cc1 (centres undefined) | 72
Cc1cc(N)ccc1CC(C)(C)N | >269
CCc1cc(N)ccc1CC(C)N (centres undefined) | >269
CC(N)Cc1ccc(N)cc1F (centres undefined) | 35
CC(C)(N)Cc1ccc(N)cc1Cl | >247
CC(N)Cc1ccc(N)cc1Cl (centres undefined) | >131
Cc1cc(N)ccc1CC(C)N (centres undefined) | >270

System: Rattus norvegicus
Test: Compound was tested for the behavioral changes in reserpinized rats that indicates the release of serotonin (5-HT syndrome) by subcuteneous administration
Assay type: functional

Compound | Least dose [mg/kg]
CC(N)Cc1c(Cl)cc(N)cc1Cl (centres undefined) | >229
CC(C)(N)Cc1ccc(N)cc1F | >264
Cc1cc(N)c(Br)cc1CC(C)N (centres undefined) | 211
CC(N)Cc1ccc(N)cc1 (centres undefined) | 276
Cc1cc(N)ccc1CC(C)(C)N | >269
CCc1cc(N)ccc1CC(C)N (centres undefined) | >269
CC(N)Cc1ccc(N)cc1F (centres undefined) | 140
CC(C)(N)Cc1ccc(N)cc1Cl | >247
CC(N)Cc1ccc(N)cc1Cl (centres undefined) | 33
Cc1cc(N)ccc1CC(C)N (centres undefined) | 270

System: not listed separately
Test: Ratio between inhibition of outside DA neurons to that of inside DA neurons
Assay type: functional

Compound | Ratio
CC(N)Cc1c(Cl)cc(N)cc1Cl (centres undefined) | 1.5
CC(C)(N)Cc1ccc(N)cc1F | 4.1
Cc1cc(N)c(Br)cc1CC(C)N (centres undefined) | 2.1
CC(N)Cc1ccc(N)cc1 (centres undefined) | 19
CC(N)Cc1ccc(N)cc1F (centres undefined) | 23
CC(C)(N)Cc1ccc(N)cc1Cl | 2.5
CC(N)Cc1ccc(N)cc1Cl (centres undefined) | 3.3
Cc1cc(N)ccc1CC(C)N (centres undefined) | 9.7

System: not listed separately
Test: Ratio (PEA/5-HT) of the compound
Assay type: functional

Compound | Ratio
CC(N)Cc1c(Cl)cc(N)cc1Cl (centres undefined) | 28300
CC(C)(N)Cc1ccc(N)cc1F | 467
Cc1cc(N)c(Br)cc1CC(C)N (centres undefined) | 193
CC(N)Cc1ccc(N)cc1 (centres undefined) | 1030
Cc1cc(N)ccc1CC(C)(C)N | 75
CC(N)Cc1ccc(N)cc1F (centres undefined) | 1070
CC(C)(N)Cc1ccc(N)cc1Cl | 1310
CC(N)Cc1ccc(N)cc1Cl (centres undefined) | 2780
Cc1cc(N)ccc1CC(C)N (centres undefined) | 1560

System: not listed separately
Test: Ratio between inhibition of outside 5-HT neurons to that of inside 5-HT neurons
Assay type: functional

Compound | Ratio
CC(N)Cc1c(Cl)cc(N)cc1Cl (centres undefined) | 1
CC(C)(N)Cc1ccc(N)cc1F | 1.6
Cc1cc(N)c(Br)cc1CC(C)N (centres undefined) | >2
CC(N)Cc1ccc(N)cc1 (centres undefined) | >>5
Cc1cc(N)ccc1CC(C)(C)N | >1
CC(N)Cc1ccc(N)cc1F (centres undefined) | 9
CC(C)(N)Cc1ccc(N)cc1Cl | 6
CC(N)Cc1ccc(N)cc1Cl (centres undefined) | 20
Cc1cc(N)ccc1CC(C)N (centres undefined) | >>5

System: not listed separately
Test: Ratio between inhibition of outside NE neurons to that of inside NE neurons
Assay type: functional

Compound | Ratio
CC(N)Cc1c(Cl)cc(N)cc1Cl (centres undefined) | 2.2
CC(C)(N)Cc1ccc(N)cc1F | >2
Cc1cc(N)c(Br)cc1CC(C)N (centres undefined) | >4
CC(N)Cc1ccc(N)cc1 (centres undefined) | >10
CC(N)Cc1ccc(N)cc1F (centres undefined) | 71
CC(C)(N)Cc1ccc(N)cc1Cl | 4.5
CC(N)Cc1ccc(N)cc1Cl (centres undefined) | >70
Cc1cc(N)ccc1CC(C)N (centres undefined) | >12

Species on record: Rattus norvegicus
Test: Determined from log concentration-inhibition curves using rat brain mitochondrial preparation as enzyme and phenethylamine (PEA) as a substrate
Assay type: functional

Compound | pIC50
CC(N)Cc1c(Cl)cc(N)cc1Cl (centres undefined) | 3.47
CC(C)(N)Cc1ccc(N)cc1F | 2.55
Cc1cc(N)c(Br)cc1CC(C)N (centres undefined) | 3.54
CC(N)Cc1ccc(N)cc1 (centres undefined) | 2.15
Cc1cc(N)ccc1CC(C)(C)N | 2.82
CCc1cc(N)ccc1CC(C)N (centres undefined) | 2.92
CC(N)Cc1ccc(N)cc1F (centres undefined) | 3.10
CC(C)(N)Cc1ccc(N)cc1Cl | 2.77
CC(N)Cc1ccc(N)cc1Cl (centres undefined) | 3.12
Cc1cc(N)ccc1CC(C)N (centres undefined) | 2.60

System: Rattus norvegicus
Test: Compound was tested for the behavioral changes in reserpinized rats that indicates the release of norepinephrine (reversal of ptosis) by subcuteneous administration
Assay type: functional

Compound | Least dose [mg/kg]
CC(N)Cc1c(Cl)cc(N)cc1Cl (centres undefined) | 115
CC(C)(N)Cc1ccc(N)cc1F | 264
Cc1cc(N)c(Br)cc1CC(C)N (centres undefined) | 211
CC(N)Cc1ccc(N)cc1 (centres undefined) | 72
Cc1cc(N)ccc1CC(C)(C)N | >269
CCc1cc(N)ccc1CC(C)N (centres undefined) | >269
CC(N)Cc1ccc(N)cc1F (centres undefined) | 17
CC(C)(N)Cc1ccc(N)cc1Cl | 247
CC(N)Cc1ccc(N)cc1Cl (centres undefined) | 16
Cc1cc(N)ccc1CC(C)N (centres undefined) | 270
